Values quoted from earlier work as cited in patent EP2899264B1, “EMULSION FOR MICROBIAL GROWTH, METHOD FOR GROWING MICROORGANISMS BY USING SAID EMULSION, AND METHOD FOR PRODUCING MICROBIAL METABOLITE” (Kaneka Corporation, priority 2012, dated 2014).

Key:
[1] = system: microorganisms; settings: used as emulsifier
[2] = for concentration at which the acid aggregates: in water
[3] = system: Aeromonas hydrophila; settings: sole carbon source
[4] = system: Ralstonia eutropha (currently classified as Cupriavidus necator); settings: sole carbon source

| Compound | effect on growth of microorganisms [1] | PHA productivity [4] | concentration at which the acid aggregates [2] | also measured |
| --- | --- | --- | --- | --- |
| Triton X-100 | inhibit growth of microorganisms | – | – | – |
| CCCCCCCCCCCC(=O)O [lauric acid] | – | ≤ 1 g/L | – | water solubility [2]: ≤ 100 µg/mL; dry cell weight [3]: about 8 g/L |
| CCCCCCCCCCCCCC(=O)O [myristic acid] | – | ≤ 1 g/L | – | – |
| CCCCCCCCCCCCOS(=O)(=O)[O-].[Na+] [SDS] | inhibit growth of microorganisms | – | – | – |
| CCCCCCCCCCCCCCCCCC(=O)O [stearic acid] | – | – | ≤ 1000 nM | – |
| CCCCCCCCCCCCCCCC(=O)O [palmitic acid] | – | – | ≤ 1000 nM | – |
